Values after ≈ are worked out from the molar mass of the structure shown. Read-outs that look alike come from different tables or passages of the source.
Columns and labels:
G. lamblia 713M3 (MtzR) = assay: ATP-bioluminescence growth/survival EC50 assay, G. lamblia 713M3; format: cell-based, Giardia lamblia
Method: (§1) Compounds were screened for antiparasitic activity using an ATP-bioluminescence based assay for cell growth and survival, [24]. […] Viable cell numbers were determined in triplicate using the CellTiter-Glo Luminescent Cell Viability Assay.

[1] = Resazurin cytotoxicity assay, HepG2; format: cell-based, Human; conditions: human, 24 h, highest concentration 100 μM, n = 3, read-out: CC50 Hep G2
Method: (§2) Human HEK293 and HepG2 cells were seeded at 3000 and 5000 cells per well in 384-well plates, respectively. Cells were cultured in Dulbecco's modified Eagle's medium with 10% FBS for 24 h at 37 °C, 5% CO2. A dilution series of compounds was added, with the highest concentration of 100 μM. […] After 24 h incubation with the compounds, 5 μM resazurin was added into each well and incubated at 37 °C for 2 h. As a negative control, 1% Triton X-100 was added into the culture media to lyse all of the cells. The fluorescence intensity was read using Polarstar Omega with excitation/emission 560/590 nm. Data were analysed with GraphPad Prism 6 software (La Jolla, California USA) to calculate CC50 values.

[2] = test system: C. difficile 630 (ATCC BAA-1382); assay: Broth microdilution MIC assay, C. difficile 630; format: cell-based, Clostridium difficile; conditions: Clostridioides difficile, ATCCBAA1382
Method: Clostridium difficile strains (630, ATCC BAA-1382 and NAP1/027, ATCC BAA-1803) were maintained as previously described. The minimum inhibition concentration (MIC) was determined according to the CLSI Methods with modifications in broth and inoculum for C. difficile, [25], [26]. Briefly, compounds and control antibiotics were serially diluted two-fold in 96-well plates (Non-binding surface, Corning). […] C. difficile bacteria from BHIS(TA) agar plates were cultured anaerobically in BHIS at 37 °C overnight. […] An antibiotic standard, a positive growth control (no compound) and a sterility control (no bacteria) were included on each 96 well plate. Plates were covered and incubated at 37 °C for 24 h. MICs for each strain were determined as the lowest concentration without visible growth. […] Median MICs are reported with a range given when the median MIC was between two tested concentrations.

E. histolytica HM1:IMSS = assay: ATP-bioluminescence growth/survival EC50 assay, E. histolytica; format: cell-based, Entamoeba histolytica; conditions: Entamoeba histolytica
Method: as §1

T. vaginalis F1623 = assay: ATP-bioluminescence growth/survival EC50 assay, T. vaginalis; format: cell-based, Trichomonas vaginalis
Method: as §1

G. lamblia WB (MtzS) = assay: ATP-bioluminescence growth/survival EC50 assay, G. lamblia WB; conditions: for EC50: Giardia duodenalis; for S.I (CC50/EC50): average cytotoxicity against HEK293 and HepG2 / G. lamblia WB activity
Method: as §1

[3] = Resazurin cytotoxicity assay, HEK293; format: cell-based, Human; conditions: human, 24 h, highest concentration 100 μM, n = 3, read-out: CC50 HEK 293
Method: as §2

[4] = test system: C. difficile NAP1/027 (ATCC BAA-1803); assay: Broth microdilution MIC assay, C. difficile NAP1/027; format: cell-based, Clostridium difficile; conditions: Clostridioides difficile, ATCCBAA1803; strain NAP1/027
Method: Clostridium difficile strains (630, ATCC BAA-1382 and NAP1/027, ATCC BAA-1803) were maintained as previously described. The minimum inhibition concentration (MIC) was determined according to the CLSI Methods with modifications in broth and inoculum for C. difficile, [25], [26]. Briefly, compounds and control antibiotics were serially diluted two-fold in 96-well plates (Non-binding surface, Corning). The plates were placed in a Coy anaerobic chamber (5% H2, 10% CO2, 85% N2) overnight to reduce the medium. C. difficile bacteria from BHIS(TA) agar plates were cultured anaerobically in BHIS at 37 °C overnight. […]. Compound concentration ranged from 64 to 0.03 μg/mL. An antibiotic standard, a positive growth control (no compound) and a sterility control (no bacteria) were included on each 96 well plate. Plates were covered and incubated at 37 °C for 24 h. MICs for each strain were determined as the lowest concentration without visible growth. Variance between replicates was typically within one 2-fold dilution. Median MICs are reported with a range given when the median MIC was between two tested concentrations.

[5] = Giardia duodenalis, read-out: EC50 G. lamblia 713M3, MtzR strain 713M3, minimum n = 3
[6] = Giardia duodenalis, read-out: pEC50 ± SE G. lamblia 713M3, MtzR strain 713M3 (converted)
[7] = strain 630, MtzS, median of n = 4, read-out: MIC C. difficile 630
[8] = read-out: EC50 E. histolytica HM1:IMSS
[9] = read-out: pEC50 ± SE E. histolytica HM1:IMSS (converted)
[10] = Trichomonas vaginalis, read-out: EC50 T. vaginalis F1623, MtzS, minimum n = 3
[11] = Trichomonas vaginalis, read-out: pEC50 ± SE T. vaginalis F1623, MtzS (converted)
[12] = read-out: EC50 G. lamblia WB, MtzS strain WB, minimum n = 3
[13] = read-out: pEC50 ± SE G. lamblia WB, MtzS strain WB (converted)
[14] = read-out: EC50 G. lamblia 713M3, MtzR strain 713M3, minimum n = 3
[15] = 630 and NAP1/027 strains together or strain not given, read-out: MIC C. difficile
[16] = read-out: EC50 T. vaginalis F1623, MtzS, minimum n = 3

SMILES | EC50 (G. lamblia 713M3 (MtzR); [5]) [µM] | EC50 (G. lamblia 713M3 (MtzR); [6]) [µM] | CC50 at 24 h [1] [µM] | MIC [2, 7] [µg/mL] | EC50 (E. histolytica HM1:IMSS; [8]) [µM] | EC50 (E. histolytica HM1:IMSS; [9]) [µM] | EC50 (T. vaginalis F1623; [10]) [µM] | EC50 (T. vaginalis F1623; [11]) [µM] | EC50 (G. lamblia WB (MtzS); [12]) [µM] | EC50 (G. lamblia WB (MtzS); [13]) [µM] | S.I (CC50/EC50) (G. lamblia WB (MtzS)) | CC50 at 24 h [3] [µM] | MIC [4] [µg/mL] | EC50 (G. lamblia 713M3 (MtzR); [14]) [µM] | CC50 at 24 h ([1]; HepG2 cells) [µM] | CC50 at 24 h ([3]; HEK293 cells) [µM] | MIC [2, 15] [µg/mL] | EC50 (T. vaginalis F1623; [16]) [µM]
O=C(NCc1cccc(OC(F)(F)F)c1)c1ncc([N+](=O)[O-])[nH]1 [Compound 12c, 5-nitro-N-(3-(trifluoromethoxy)benzyl)-1H-imidazole-2-carboxamide] | 15 | 14.8 | > 100 | 16 (≈ 48.5 µM) | 3.6 | 3.63 | 1.9 | 1.91 | 0.2 | 0.2 | >500 | > 100 | 16 (≈ 48.5 µM) |  |  |  |  | 
CC(NC(=O)c1ncc([N+](=O)[O-])[nH]1)c1ccc(F)cc1 (centres unmarked) [Compound 12d, N-(1-(4-fluorophenyl)ethyl)-5-nitro-1H-imidazole-2-carboxamide] | ≤ 2.5 | 1.26 |  | 8 (≈ 28.8 µM) | 1.7 | 1.7 | 0.6 | 0.589 | 0.4 | 0.398 | >250 |  | 8 (≈ 28.8 µM) | 1.3 | > 100 | > 100 |  | 
Cc1ccc(CCNC(=O)c2ncc([N+](=O)[O-])[nH]2)cc1 [Compound 12e, N-(4-methylphenethyl)-5-nitro-1H-imidazole-2-carboxamide] | ≤ 2.5 | 1.35 |  | 8 (≈ 29.2 µM) | 2.1 | 2.09 | 1.2 to 2.3 | 1.2 | 0.1 to 0.6 | 0.1 | >1000 |  | 8 (≈ 29.2 µM) | 1.4 | > 100 | > 100 | 4 to 16 (≈ 14.6 to 58.3 µM) | 1.2
O=C(NCc1ccccn1)c1ncc([N+](=O)[O-])[nH]1 [Compound 12f, 5-nitro-N-(pyridin-2-ylmethyl)-1H-imidazole-2-carboxamide] | > 20 | > 20 |  | 2 (≈ 8.09 µM) | 15 | 15.1 | 7.1 | 7.08 | 7.2 | 7.24 | >14 |  | 2 (≈ 8.09 µM) |  | > 100 | > 100 |  | 
CN(C)C(=O)c1ncc([N+](=O)[O-])[nH]1 [Compound 12g, N,N-dimethyl-5-nitro-1H-imidazole-2-carboxamide] | > 20 | > 20 |  | 2 (≈ 10.9 µM) | 2.7 | 2.69 | 2.4 | 2.34 | 8.3 | 8.32 | >12 |  | 2 (≈ 10.9 µM) |  | > 100 | > 100 |  | 
O=C(c1ncc([N+](=O)[O-])[nH]1)N1CCCC1 [Compound 12i, (5-nitro-1H-imidazol-2-yl)(pyrrolidin-1-yl)methanone] | 13 | 13.2 |  | 2 (≈ 9.52 µM) | 4.3 | 4.27 | 1.2 to 2.3 | 1.7 | 3.4 | 3.39 | >29 |  | 2 (≈ 9.52 µM) |  | > 100 | > 100 |  | 1.7
O=C(NC1CC1)c1ncc([N+](=O)[O-])[nH]1 [Compound 12j, N-cyclopropyl-5-nitro-1H-imidazole-2-carboxamide] | > 20 | > 20 |  | 1 (≈ 5.1 µM) | 5.3 | 5.25 | 4.4 | 4.37 | 5 | 5.01 | >20 |  | 1 (≈ 5.1 µM) |  | > 100 | > 100 | 1 (≈ 5.1 µM) | 
NC(=O)c1ncc([N+](=O)[O-])[nH]1 [Compound 12l, 5-nitro-1H-imidazole-2-carboxamide] | > 20 | > 20 | > 100 | 1 (≈ 6.41 µM) | 13 | 13.2 | > 20 | > 20 | > 50 | > 50.1 |  | > 100 | 1 to 2 (≈ 6.41 to 12.8 µM) |  |  |  |  | 
CNC(=O)c1ncc([N+](=O)[O-])[nH]1 [Compound 12m, N-methyl-5-nitro-1H-imidazole-2-carboxamide] | > 20 | > 20 |  | 0.5 to 1 (≈ 2.94 to 5.88 µM) | 6.1 | 6.17 | 8.5 | 8.51 | 9.9 | 10 | >10 |  | 1 (≈ 5.88 µM) |  | > 100 | > 100 |  | 
O=C(NCCO)c1ncc([N+](=O)[O-])[nH]1 [Compound 12n, N-(2-hydroxyethyl)-5-nitro-1H-imidazole-2-carboxamide] | > 20 | > 20 |  | 8 (≈ 40 µM) | > 50 | > 50.1 | > 20 | > 20 | > 50 | > 50.1 |  |  | 8 to 16 (≈ 40 to 79.9 µM) |  | > 100 | > 100 | 8 to 16 (≈ 40 to 79.9 µM) | 
CN(CCO)C(=O)c1ncc([N+](=O)[O-])[nH]1 [Compound 12o, N-(2-hydroxyethyl)-N-methyl-5-nitro-1H-imidazole-2-carboxamide] | > 20 | > 20 |  | 2 (≈ 9.34 µM) | > 50 | > 50.1 | > 20 | > 20 | 24 | 24 | >4 |  | 4 (≈ 18.7 µM) |  | > 100 | > 100 | 0.5 to 2 (≈ 2.33 to 9.34 µM) | 

Reference: PMC4920673, “Nitroimidazole carboxamides as antiparasitic agents targeting Giardia lamblia, Entamoeba histolytica and Trichomonas vaginalis” (European Journal of Medicinal Chemistry, 2016)
